Results taken from patent US20230372458A1, “ANTIVIRAL AGENT FOR COMBINED THERAPY OF COVID-19 (SARS-COV-2)” (priority 2020, published 2023).
Like-named read-outs stand apart in the source and are kept apart here.

System: COVID-19 (SARS-CoV-2)
Details: lung damage by computer tomography

With `NC(=O)c1nc(F)cnc1O` [FPV, 6-fluoro-3-hydroxy-2-pyrazinecarboxamide] the “CT on Day 14: Improvement, percent of patients” value was “(72.7%)”, the “CT on Day 14: No change, percent of patients” value was “(9.1%)” and the “CT on Day 14: Worsening, percent of patients” value was “(18.2%)”. For the same molecule, the “CT on Day 14: Improvement, number of patients” value (count of patients) was 8, the “CT on Day 14: No change, number of patients” value (count of patients) was 1 and the “CT on Day 14: Worsening, number of patients” value (count of patients) was 2. The “CT on Day 14: Improvement, percent of patients” value (listed as FVP) was 72.7%, the “CT on Day 14: No change, percent of patients” value (listed as FVP) was 9.1% and the “CT on Day 14: Worsening, percent of patients” value (listed as FVP) was 18.2%.
